“Also recorded” adds a separate entry of the source. Read-outs that look alike come from different tables or passages of the source.
Tests used:
Kv1.3 channel [1] = format: cell-based, human
Kv1.3 channel [2] = molecular target: T1, Kv1.3 channel (Homo sapiens, UniProt P22001); experiment: Whole-cell patch clamp electrophysiology, HEK293 Kv1.3 stable cells; format: cell-based
T1 construct: expressed in transfected cells
Protocol: (§1) The variegated region of each variant was extracted based on the known flanking sequences. The ratio between number of unique toxins and count of all reads represented the diversity of a selected library. Highly enriched variants versus those that were not enriched were chosen and their affinity to Kv1.3 were assessed and ranked. In general, the enrichment factor of a variant is positively correlated with its affinity to Kv1.3 (FIG. 4). […] To test the critical property of specificity, patch clamp analysis of S1-2 was also carried out on HEK293 cells expressing other Kv1 family members including Kv1.1 through Kv1.7 and the hERG channel.
(§2) Electrophysiology recording: HEKA EPC 10 USB patch clamp amplifier (from HEKA Elektronik, Germany) was used for the whole cell recording. A cover slip with abundant single HEK293 Kv1.3 stable cells on the surface was removed and placed into a continuously perfused (approximately 1-2 ml/minute) recording chamber mounted on an inverted microscope. The Kv1.3 current was recorded from single cell using standard whole cell recording techniques. The cell was voltage clamped at a holding potential of −80 mV. Outward potassium currents were measured using the whole-cell configuration of the patch clamp technique at a test potential of 40 mV from a holding potential of −80 mV. Current records were acquired at 2-5 KHz and filtered at 1-2 KHz. […]

Kv1.1 = molecular target: T2, Kv1.1 (Homo sapiens, UniProt Q09470); experiment: Patch clamp on HEK293 cells expressing Kv1.1; format: cell-based
T2 construct: expressed in transfected cells; host or cells: HEK293
Protocol: as §1, §2

Kv1.6 = molecular target: T3, Kv1.6 (Homo sapiens, UniProt P17658); experiment: Patch clamp on HEK293 cells expressing Kv1.6; format: cell-based
T3 construct: expressed in transfected cells; host or cells: HEK293
Protocol: as §1, §2

[3] = lentivirus encoding membrane tethered peptide

Sequence of Kv1.3 channel (P22001 53-575 limits assumed): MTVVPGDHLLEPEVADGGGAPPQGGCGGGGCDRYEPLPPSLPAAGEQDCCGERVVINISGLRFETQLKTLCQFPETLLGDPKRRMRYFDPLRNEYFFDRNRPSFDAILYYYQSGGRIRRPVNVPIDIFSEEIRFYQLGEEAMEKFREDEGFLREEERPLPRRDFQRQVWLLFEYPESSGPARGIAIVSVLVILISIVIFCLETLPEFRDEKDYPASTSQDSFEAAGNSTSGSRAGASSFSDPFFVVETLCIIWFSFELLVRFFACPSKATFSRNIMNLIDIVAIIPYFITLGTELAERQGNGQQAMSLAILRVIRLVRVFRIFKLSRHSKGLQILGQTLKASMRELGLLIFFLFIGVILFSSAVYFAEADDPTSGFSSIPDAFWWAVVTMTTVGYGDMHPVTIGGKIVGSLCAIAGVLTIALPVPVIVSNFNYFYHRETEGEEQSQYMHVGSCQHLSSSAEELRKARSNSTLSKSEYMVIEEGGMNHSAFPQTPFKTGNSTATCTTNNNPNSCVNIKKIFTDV
T1 sequence (P22001 whole entry): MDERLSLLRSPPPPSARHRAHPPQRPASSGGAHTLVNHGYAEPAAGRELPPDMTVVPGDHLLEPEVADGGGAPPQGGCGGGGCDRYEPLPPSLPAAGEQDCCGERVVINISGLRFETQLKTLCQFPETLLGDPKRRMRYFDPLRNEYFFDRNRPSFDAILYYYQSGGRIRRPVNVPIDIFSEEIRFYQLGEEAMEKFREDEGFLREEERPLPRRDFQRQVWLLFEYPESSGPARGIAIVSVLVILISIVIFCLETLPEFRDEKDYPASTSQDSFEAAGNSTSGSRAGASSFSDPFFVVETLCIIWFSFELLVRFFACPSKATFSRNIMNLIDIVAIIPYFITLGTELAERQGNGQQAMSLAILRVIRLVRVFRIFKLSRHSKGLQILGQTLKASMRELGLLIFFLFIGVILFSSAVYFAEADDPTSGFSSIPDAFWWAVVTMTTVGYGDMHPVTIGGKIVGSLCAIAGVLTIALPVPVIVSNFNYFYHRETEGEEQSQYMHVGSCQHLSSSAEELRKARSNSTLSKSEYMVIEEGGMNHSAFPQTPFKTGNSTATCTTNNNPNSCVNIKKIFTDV
T3 sequence (P17658 whole entry): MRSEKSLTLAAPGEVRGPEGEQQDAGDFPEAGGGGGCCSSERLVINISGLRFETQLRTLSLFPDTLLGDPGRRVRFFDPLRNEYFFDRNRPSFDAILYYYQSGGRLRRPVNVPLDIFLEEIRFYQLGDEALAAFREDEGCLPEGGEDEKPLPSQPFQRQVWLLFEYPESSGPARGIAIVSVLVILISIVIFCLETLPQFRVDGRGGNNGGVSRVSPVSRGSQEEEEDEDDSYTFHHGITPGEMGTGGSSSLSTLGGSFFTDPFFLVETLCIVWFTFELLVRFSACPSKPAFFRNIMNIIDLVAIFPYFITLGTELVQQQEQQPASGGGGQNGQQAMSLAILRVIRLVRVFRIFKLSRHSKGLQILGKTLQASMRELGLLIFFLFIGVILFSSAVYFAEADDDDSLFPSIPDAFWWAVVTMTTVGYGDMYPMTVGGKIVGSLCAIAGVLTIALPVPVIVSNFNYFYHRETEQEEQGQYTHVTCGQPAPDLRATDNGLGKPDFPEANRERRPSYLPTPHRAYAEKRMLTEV
T2 sequence (Q09470 whole entry): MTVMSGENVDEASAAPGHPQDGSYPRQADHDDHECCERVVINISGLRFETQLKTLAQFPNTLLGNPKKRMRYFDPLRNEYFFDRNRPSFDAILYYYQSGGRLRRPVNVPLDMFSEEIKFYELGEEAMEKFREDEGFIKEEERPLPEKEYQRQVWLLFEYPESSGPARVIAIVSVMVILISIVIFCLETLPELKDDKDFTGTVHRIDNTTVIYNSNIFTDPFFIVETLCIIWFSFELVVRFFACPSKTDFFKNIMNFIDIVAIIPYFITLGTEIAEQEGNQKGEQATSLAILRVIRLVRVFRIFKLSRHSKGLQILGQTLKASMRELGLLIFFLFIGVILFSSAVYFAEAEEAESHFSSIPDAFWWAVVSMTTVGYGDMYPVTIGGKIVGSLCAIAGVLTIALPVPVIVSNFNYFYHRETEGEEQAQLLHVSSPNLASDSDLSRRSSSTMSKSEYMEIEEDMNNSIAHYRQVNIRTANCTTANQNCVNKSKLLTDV

Row | Substance | Activation of tdTomato reporter in Kv1.3 reporter cells, in words (Kv1.3 channel [1]; [3]) | Block / inhibition of Kv1.3 channel, in words (Kv1.3 channel [2]) | also measured
1 | Anuroctoxin | stimulated the Kv1.3 reporter cells to express tdTomato fluorescent protein |  | 
2 | CllTx1 (ITINVKCTSPQQCLRPCKDRFGQHAGGKCINGKCKCYP) |  | strongly blocked; also recorded: potently blocked | 
3 | Exendin-4: GLP-1 receptor targeting peptide, negative control lentivirus | no activity |  | 
4 | ShK | stimulated the Kv1.3 reporter cells to express tdTomato fluorescent protein | comparable inhibition | Effect on Kv1.1, in words (Kv1.1): comparable inhibition; Effect on Kv1.6, in words (Kv1.6): comparable inhibition
5 | Vc1.1 |  |  | Activation of tdTomato reporter in Kv1.3 reporter cells, in words (Kv1.3 channel [1]): no activity

From patent US20200190151A1, “KV1.3-BLOCKING VENOM PEPTIDE VARIANTS AND RELATED USES” (The Scripps Research Institute, priority 2016, published 2020)
